Assay results reported in patent publication US10071068B2, “Sustained release oral dosage forms of an R-baclofen prodrug” (XENOPORT, INC., priority 2009, dated 2018).

What was measured:
[1] = clinical trials (Gerson et al. 2009); cited from earlier work
[2] = Bulk density, tap density and compressibility of powders; assay type: physicochemical; conditions: major component of Example 15 blend
[3] = dosed either orally or directly into the colon of a mammal; cited from earlier work
[4] = Particle size of compound (1) lots, wet and dry method; assay type: physicochemical
[5] = FLODEX powder flowability (Flodex); assay type: physicochemical; conditions: for Flowdex: crystalline compound (1) lot, Table 2; for Flodex: neat powder, listed as Compound (1)
Text: The flow of dry powders was characterized using a FLODEX™ Powder Flowability Index Test Instrument (Hanson Research Corporation, Chatsworth, Calif.). The instrument was equipped with a cylindrical metal reservoir, which holds the test powder prior to flow testing. The cylindrical reservoir has an inside diameter of 5.7 cm and a length of […]. The bottom end of the reservoir can be closed with removable metal discs. Each disc has a round orifice centered in the disc. Orifice diameters range from 4 mm to 10 mm in 1 mm increments, and from 10 mm to 34 mm in 2 mm increments. Prior to flow testing, the orifice is blocked. Powder is then placed over the blocked orifice. When the orifice is unblocked, powder can flow through the orifice under the force of gravity if the orifice diameter is sufficiently large. Powder that flows through small orifices is considered to have flow properties useful for tableting. For example, a Flodex measurement (Flodex) of less than about 24 mm is […] high-speed tableting operations at commercial scale. A Flodex less than about 20 mm is useful for high-speed tableting operations. A Flodex of 18 mm or less is considered especially useful for high speed tableting operations.
The Flodex is determined by first gently filling the reservoir with approximately 70 cc of test powder while the orifice at the bottom is blocked, while avoiding severe piling, and without vibrating or tapping the powder bed. Next, the orifice is unblocked. This can be accomplished by opening a shutter that is supplied with the instrument. Alternatively, if a shutter is not used, the powder-filled reservoir fitted with a disc can be set on a dry, flat surface to block the orifice. Then, slowly and evenly, the reservoir is lifted to allow the powders to flow. In either procedure, if the powder flows through the orifice, a clear channel is left within the powder bed. […] The flow test is conducted with various orifice sizes until the minimum orifice size for good flow is identified, which is referred to as the Flodex.

Row | Compound | reflux episodes [1] | Bulk Density [2] | bioavailability as R-baclofen [3] | Particle size, Dry method, dv0.5 [4] | Particle size, Dry method, dv0.9 [4] | Particle size, Wet method, dv0.5 [4] | Particle size, Wet method, dv0.9 [4] | Flowdex [5] | Flodex ([5]; Lot 4) | Flodex ([5]; Lot 70) | Flodex ([5]; Lot 71)
1 | CC(C)C(=O)O[C@@H](OC(=O)NC[C@H](CC(=O)O)c1ccc(Cl)cc1)C(C)C [Compound (1), (3R)-4-{[(1S)-2-Methyl-1-(2-methylpropanoyloxy)propoxy]carbonylamino}-3-(4-chlorophenyl)butanoic acid] | reduce reflux episodes | 0.15 g/cc | high bioavailability |  |  |  |  |  |  |  | 
2 | CC(C)C(=O)O[C@@H](OC(=O)NC[C@H](CC(=O)O)c1ccc(Cl)cc1)C(C)C [Lot 4, (3R)-4-{[(1S)-2-Methyl-1-(2-methylpropanoyloxy)propoxy]carbonylamino}-3-(4-chlorophenyl)butanoic acid] |  |  |  | 11.09 μm | 102 μm | 3.35 μm | 40.47 μm | 23 mm | 24 mm |  | 
3 | CC(C)C(=O)O[C@@H](OC(=O)NC[C@H](CC(=O)O)c1ccc(Cl)cc1)C(C)C [Lot 70, (3R)-4-{[(1S)-2-Methyl-1-(2-methylpropanoyloxy)propoxy]carbonylamino}-3-(4-chlorophenyl)butanoic acid] |  |  |  | 27.53 μm | 106.87 μm | 4.81 μm | 37.2 μm | 26 mm |  | 26 mm | 
4 | CC(C)C(=O)O[C@@H](OC(=O)NC[C@H](CC(=O)O)c1ccc(Cl)cc1)C(C)C [Lot 71, (3R)-4-{[(1S)-2-Methyl-1-(2-methylpropanoyloxy)propoxy]carbonylamino}-3-(4-chlorophenyl)butanoic acid] |  |  |  | 17.64 μm | 107.48 μm | 22.17 μm | 63.02 μm | 26 mm |  |  | 26 mm
